Results: patent publication US10597388B2, “Pyridazinone herbicides” (FMC CORPORATION, priority 2014, dated 2020)

Legend:
Assay in all cases: Test D controlled growth environment herbicide test, pre- and postemergence
Type in all cases: in vivo
[1] = test system: pigweed (Amaranthus retroflexus)
In short: (§1)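 Pre-emergence: seeds sown in silt loam soil were sprayed with compound in a non-phytotoxic solvent mix containing surfactant. Post-emergence: plants at 2 to 18 cm (1- to 4-leaf stage) in peat moss/vermiculite medium got the same formulation. Visual 0–100 rating versus controls after 14 to 21 d.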

[2] = test system: speedwell (bird's-eye speedwell, Veronica persica)
In short: as §1

[3] = test system: bluegrass (annual bluegrass, Poa annua)
In short: as §1

[4] = test system: barley, spring (spring barley, Hordeum vulgare)
In short: as §1

[5] = test system: mustard, wild (wild mustard, Sinapis arvensis)
In short: as §1

[6] = test system: radish, wild (wild radish, Raphanus raphanistrum)
In short: as §1

[7] = test system: buckwheat, wild (wild buckwheat, Polygonum convolvulus)
In short: as §1

[8] = test system: oilseed rape (Brassica napus)
In short: as §1

[9] = test system: oat, wild (wild oat, Avena fatua)
In short: as §1

[10] = test system: chamomile (scentless chamomile, Matricaria inodora)
In short: as §1

[11] = test system: field poppy (Papaver rhoeas)
In short: as §1

[12] = test system: galium (catchweed bedstraw, Galium aparine)
In short: as §1

[13] = test system: barley, winter (winter barley, Hordeum vulgare)
In short: as §1

[14] = Postemergence, 31 g ai/ha, scale 0 to 100 (0 no effect, 100 complete control)
[15] = Postemergence, 125 g ai/ha, visual rating on scale 0 (no effect) to 100 (complete control), 14 to 21 d
[16] = Postemergence, 250 g ai/ha, scale 0 to 100 (0 no effect, 100 complete control)
[17] = Preemergence, 125 g ai/ha, scale 0 to 100 (0 no effect, 100 complete control)
[18] = Preemergence, 250 g ai/ha, scale 0 to 100 (0 no effect, 100 complete control)
[19] = postemergence, 62 g ai/ha, scale 0 to 100, 0 no effect, 100 complete control
[20] = Preemergence, 62 g ai/ha, scale 0 to 100 (0 no effect, 100 complete control)

CC(=O)Oc1c(Br)nn(C)c(=O)c1-c1c(C)ccc2ccccc12 [Compound 129]
30: Plant response rating, Bluegrass [3, 16] | Plant response rating, Barley, Spring [4, 15] | Plant response rating, Barley, Spring [4, 16] | Plant response rating, Buckwheat, Wild [7, 20] | Plant response rating, Barley, Winter [13, 15]
0: Plant response rating (scale of 0 to 100), Bluegrass ([3]; Preemergence, 31 g ai/ha) | Plant response rating (scale of 0 to 100), Barley, Spring ([4]; Preemergence, 31 g ai/ha) | Plant response rating, Barley, Spring [4, 20] | Plant response rating, Barley, Spring [4, 17] | Plant response rating (scale of 0 to 100), Buckwheat, Wild ([7]; Preemergence, 31 g ai/ha) | Plant response rating (scale of 0 to 100), Oilseed Rape ([8]; Preemergence, 31 g ai/ha) | Plant response rating (scale of 0 to 100), Barley, Winter ([13]; Preemergence, 31 g ai/ha) | Plant response rating, Barley, Winter [13, 20] | Plant response rating, Barley, Winter [13, 17]
10: Bluegrass plant response rating [3, 14] | Plant response rating, Bluegrass [3, 20] | Barley, Winter plant response rating [13, 14] | Plant response rating, Barley, Winter [13, 18]
80: Mustard, Wild plant response rating [5, 14] | Plant response rating, Mustard, Wild [5, 19] | Plant response rating, Radish, Wild [6, 15] | Plant response rating (scale of 0 to 100), Radish, Wild ([6]; Preemergence, 31 g ai/ha) | Plant response rating, Field Poppy [11, 15]
100: Plant response rating, Pigweed [1, 15] | Plant response rating, Pigweed [1, 16] | Plant response rating (scale of 0 to 100), Pigweed ([1]; Preemergence, 31 g ai/ha) | Plant response rating (scale of 0 to 100), Pigweed ([1]; Preemergence, 62 g ai/ha) | Plant response rating, Pigweed [1, 17] | Plant response rating (scale of 0 to 100), Speedwell ([2]; Preemergence, 62 g ai/ha) | Plant response rating, Speedwell [2, 17] | Plant response rating, Speedwell [2, 18] | Plant response rating, Mustard, Wild [5, 16] | Plant response rating (scale of 0 to 100), Mustard, Wild ([5]; Preemergence, 62 g ai/ha) | Plant response rating, Mustard, Wild [5, 17] | Plant response rating, Mustard, Wild [5, 18] | Plant response rating (scale of 0 to 100), Radish, Wild ([6]; Preemergence, 62 g ai/ha) | Plant response rating, Radish, Wild [6, 17] | Plant response rating, Radish, Wild [6, 18] | Buckwheat, Wild plant response rating [7, 14] | Plant response rating, Buckwheat, Wild [7, 15] | Plant response rating, Buckwheat, Wild [7, 16] | Plant response rating, Buckwheat, Wild [7, 19] | Plant response rating, Oilseed Rape [8, 18] | Plant response rating, Oat, Wild [9, 16] | Plant response rating, Oat, Wild [9, 18] | Chamomile plant response rating [10, 14] | Plant response rating, Chamomile [10, 15] | Plant response rating, Chamomile [10, 16] | Plant response rating (scale of 0 to 100), Chamomile ([10]; Preemergence, 31 g ai/ha) | Plant response rating (scale of 0 to 100), Chamomile ([10]; Preemergence, 62 g ai/ha) | Plant response rating, Chamomile [10, 17] | Plant response rating, Chamomile [10, 18] | Plant response rating, Field Poppy [11, 17] | Plant response rating, Field Poppy [11, 18] | Plant response rating, Galium [12, 15] | Plant response rating, Galium [12, 16] | Plant response rating, Galium [12, 19]
95: Plant response rating, Oat, Wild [9, 15] | Plant response rating, Galium [12, 18]
35: Speedwell plant response rating [2, 14] | Plant response rating, Barley, Winter [13, 16]
60: Plant response rating, Speedwell [2, 19] | Plant response rating, Bluegrass [3, 18] | Radish, Wild plant response rating [6, 14]
90: Plant response rating (scale of 0 to 100), Speedwell ([2]; Preemergence, 31 g ai/ha) | Oat, Wild plant response rating [9, 14] | Plant response rating, Oat, Wild [9, 17] | Plant response rating, Oat, Wild [9, 19] | Plant response rating (scale of 0 to 100), Field Poppy ([11]; Preemergence, 31 g ai/ha) | Galium plant response rating [12, 14] | Plant response rating (scale of 0 to 100), Galium ([12]; Preemergence, 62 g ai/ha) | Plant response rating, Galium [12, 17]
20: Plant response rating, Bluegrass [3, 15] | Barley, Spring plant response rating [4, 14] | Plant response rating, Barley, Spring [4, 18] | Plant response rating, Barley, Winter [13, 19]
55: Plant response rating, Oilseed Rape [8, 17]
98: Pigweed plant response rating [1, 14] | Plant response rating, Pigweed [1, 18] | Plant response rating, Pigweed [1, 19] | Plant response rating, Mustard, Wild [5, 15] | Plant response rating, Radish, Wild [6, 16] | Plant response rating, Chamomile [10, 19] | Plant response rating, Field Poppy [11, 16] | Plant response rating (scale of 0 to 100), Field Poppy ([11]; Preemergence, 62 g ai/ha)
75: Plant response rating, Speedwell [2, 16] | Plant response rating (scale of 0 to 100), Mustard, Wild ([5]; Preemergence, 31 g ai/ha) | Plant response rating, Radish, Wild [6, 19] | Plant response rating (scale of 0 to 100), Oat, Wild ([9]; Preemergence, 31 g ai/ha) | Plant response rating (scale of 0 to 100), Oat, Wild ([9]; Preemergence, 62 g ai/ha) | Plant response rating, Field Poppy [11, 19] | Plant response rating (scale of 0 to 100), Galium ([12]; Preemergence, 31 g ai/ha)
15: Plant response rating, Bluegrass [3, 19] | Plant response rating, Oilseed Rape [8, 15] | Plant response rating (scale of 0 to 100), Oilseed Rape ([8]; Preemergence, 62 g ai/ha)
85: Plant response rating, Buckwheat, Wild [7, 17] | Plant response rating, Buckwheat, Wild [7, 18]
65: Plant response rating, Speedwell [2, 15]
5: Oilseed Rape plant response rating [8, 14] | Plant response rating, Oilseed Rape [8, 19]
70: Plant response rating, Oilseed Rape [8, 16] | Field Poppy plant response rating [11, 14]
25: Plant response rating, Bluegrass [3, 17] | Plant response rating, Barley, Spring [4, 19]
